The source of these data is ChEMBL document CHEMBL1201862, “PubChem BioAssay data set” (2004).

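How tested: cells in 96-well plates exposed to compound for 48 hours at five concentrations. GI50 marks 50% less growth.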 The source made the active and inactive calls. No stated cut-off is given here; in the data, active = GI50 up to about 1.1 µM and inactive = higher.

Test systems include T47D; UO-31; NCI-H226; EKVX; CCRF-CEM; SNB-19; NCI-H23; NCI-H460; SK-OV-3; NCI/ADR-RES; SNB-75; K562; TK-10; BT-549; HL-60; DU-145; Hs-578T; COLO 205; Malme-3M; 786-0.
Common to all, as to assay: NCI-60 cell line screen, 48 h

On to `CC(C)CNC(=O)Cn1c(-c2ccccc2)cc2ccccc21`, for which the GI50 with T47D, with UO-31, with NCI-H226, with EKVX, in the experiment on CCRF-CEM and with SNB-19 was > 100 µM (inactive) in each case. For the same compound, the GI50 with NCI-H23, in the experiment on NCI-H460, in the experiment on SK-OV-3, in the experiment with NCI/ADR-RES, with SNB-75 and with K562 was > 100 µM (inactive) throughout. The GI50 is > 100 µM (inactive) in the experiment on TK-10; > 100 µM (inactive) in the experiment with BT-549; > 100 µM (inactive) with HL-60; > 100 µM (inactive) with DU-145; 19.5 µM (inactive) in the experiment on Hs-578T; > 100 µM (inactive) with COLO 205. In addition, the GI50 with Malme-3M and in the experiment on 786-0 was > 100 µM (inactive) throughout.
As to `COc1cc(OC)c(-n2[nH]c(=O)n(C)c2=O)c(OC)c1`, the GI50 in the experiment on T47D, in the experiment with UO-31, in the experiment with NCI-H226, in the experiment on EKVX, in the experiment on CCRF-CEM and in the experiment on SNB-19 was > 100 µM (inactive) throughout. Besides, the GI50 with NCI-H23, in the experiment with NCI-H460, in the experiment with SK-OV-3, in the experiment with NCI/ADR-RES, in the experiment with SNB-75 and in the experiment on K562 was > 100 µM (inactive) in each case. Moreover, the GI50 in the experiment with TK-10, in the experiment on BT-549, in the experiment with HL-60, in the experiment on DU-145, in the experiment with Hs-578T and with COLO 205 was > 100 µM (inactive) each time. The GI50 in the experiment with Malme-3M and in the experiment with 786-0 was > 100 µM (inactive) in each case.
With `CCOC(=O)c1cc(C2CCN(c3ccccc3)C2=O)c(C(=O)/C=C(/C)O)[nH]1` (stereo not given), the GI50 is 36.6 µM (inactive) with T47D; 66.7 µM (inactive) with UO-31; > 100 µM (inactive) in the experiment on NCI-H226; 24.7 µM (inactive) in the experiment on EKVX; 59.6 µM (inactive) in the experiment on CCRF-CEM; > 100 µM (inactive) in the experiment on SNB-19. For the same compound, the GI50 is 55.6 µM (inactive) in the experiment on NCI-H23; > 100 µM (inactive) in the experiment on NCI-H460; 96.4 µM (inactive) in the experiment with SK-OV-3; 73.5 µM (inactive) with NCI/ADR-RES; 74.5 µM (inactive) with SNB-75; 64 µM (inactive) in the experiment with K562. Also, the GI50 with TK-10 is > 100 µM (inactive); in the experiment on BT-549 it was 61.2 µM (inactive); in the experiment on HL-60 it was 27.2 µM (inactive); in the experiment on DU-145, > 100 µM (inactive); with Hs-578T, 93.8 µM (inactive); in the experiment with COLO 205, > 100 µM (inactive). The GI50 was > 100 µM (inactive) in the experiment with Malme-3M and 54.5 µM (inactive) with 786-0.
Turning to `CCn1c(-c2c(Cl)cc(O)cc2Cl)cc2c(Cl)cc(O)cc21`, the GI50 with T47D is 7.62 µM (inactive); in the experiment on UO-31 it was 7.83 µM (inactive); with NCI-H226, 26.4 µM (inactive); in the experiment on EKVX, 13.2 µM (inactive); in the experiment on CCRF-CEM it was 6.04 µM (inactive); in the experiment with SNB-19 it was 8.47 µM (inactive). The GI50 is 7.78 µM (inactive) in the experiment with NCI-H23; 3.56 µM (inactive) in the experiment with NCI-H460; 7.36 µM (inactive) with SK-OV-3; 5.13 µM (inactive) with NCI/ADR-RES; 4.18 µM (inactive) in the experiment with SNB-75; 3.41 µM (inactive) with K562. Besides, the GI50 in the experiment on TK-10 was 13.1 µM (inactive); with BT-549, 4.5 µM (inactive); with HL-60, 3.43 µM (inactive); in the experiment with DU-145 it was 4.48 µM (inactive); with Hs-578T, 5.07 µM (inactive); in the experiment on COLO 205 it was 15.2 µM (inactive). The GI50 was 14 µM (inactive) in the experiment with Malme-3M and 4.66 µM (inactive) in the experiment on 786-0.
For `O=C(O)CSSCC(=O)O`, the GI50 in the experiment with T47D, in the experiment with UO-31, with NCI-H226, in the experiment with EKVX, in the experiment on CCRF-CEM and with SNB-19 was > 100 µM (inactive) each time. Also, the GI50 in the experiment with NCI-H23, in the experiment on NCI-H460, in the experiment with SK-OV-3, with NCI/ADR-RES, with SNB-75 and in the experiment on K562 was > 100 µM (inactive) in each case. Moreover, the GI50 in the experiment with TK-10, in the experiment on BT-549, with HL-60, with DU-145, in the experiment with Hs-578T and in the experiment with COLO 205 was > 100 µM (inactive) in each case. The GI50 in the experiment on Malme-3M and with 786-0 was > 100 µM (inactive) in each case.
For the compound `COc1cc(OC)c2c(O)c(S(=O)(=O)c3ccc(C)cc3)c(=O)oc2c1`, the GI50 in the experiment with T47D is > 100 µM (inactive); in the experiment with UO-31, > 100 µM (inactive); with NCI-H226, > 100 µM (inactive); with EKVX, > 100 µM (inactive); with CCRF-CEM, 78.2 µM (inactive); in the experiment with SNB-19 it was 93.3 µM (inactive). Also, the GI50 in the experiment with NCI-H23 is > 100 µM (inactive); in the experiment on NCI-H460, > 100 µM (inactive); in the experiment on SK-OV-3 it was > 100 µM (inactive); with NCI/ADR-RES, > 100 µM (inactive); in the experiment on SNB-75, > 100 µM (inactive); with K562, 69.5 µM (inactive). Further, the GI50 with TK-10 was > 100 µM (inactive); in the experiment on BT-549, > 100 µM (inactive); in the experiment on HL-60 it was > 100 µM (inactive); in the experiment on DU-145 it was > 100 µM (inactive); with Hs-578T it was 94.6 µM (inactive); in the experiment on COLO 205, > 100 µM (inactive). Besides, the GI50 in the experiment with Malme-3M and in the experiment with 786-0 was > 100 µM (inactive) each time.
As to `O=C(O)c1nn(-c2ccc(Cl)cc2)c2c1C(=O)c1ccccc1C2=O`, the GI50 with T47D was > 100 µM (inactive); in the experiment on UO-31, > 100 µM (inactive); in the experiment on NCI-H226, > 100 µM (inactive); with EKVX, > 100 µM (inactive); with CCRF-CEM it was < 0.01 µM (active); in the experiment on SNB-19 it was > 100 µM (inactive). For the same compound, the GI50 with NCI-H23 was 37.5 µM (inactive); with NCI-H460, 62.1 µM (inactive); with SK-OV-3 it was > 100 µM (inactive); with NCI/ADR-RES it was > 100 µM (inactive); with SNB-75, 22.8 µM (inactive); in the experiment on K562, > 100 µM (inactive). The GI50 with TK-10, in the experiment with BT-549, in the experiment with HL-60, with DU-145, with Hs-578T and in the experiment on COLO 205 was > 100 µM (inactive) each time. The GI50 with Malme-3M was 5.42 µM (inactive); in the experiment on 786-0, > 100 µM (inactive).
In the case of `c1ccc2c(c1)ccn2CCc1c[nH]c2ccccc12`, the GI50 in the experiment with T47D was > 10 µM (inactive); in the experiment with UO-31 it was 9.86 µM (inactive); in the experiment with NCI-H226, 8.07 µM (inactive); in the experiment on EKVX, > 10 µM (inactive); in the experiment on CCRF-CEM it was > 10 µM (inactive); in the experiment on SNB-19 it was > 10 µM (inactive). Besides, the GI50 with NCI-H23, in the experiment on NCI-H460, in the experiment with SK-OV-3, with NCI/ADR-RES, in the experiment on SNB-75 and in the experiment with K562 was > 10 µM (inactive) in each case. For the same compound, the GI50 with TK-10, with BT-549, with HL-60, in the experiment on DU-145, in the experiment with Hs-578T and in the experiment on COLO 205 was > 10 µM (inactive) in each case. The GI50 with Malme-3M and with 786-0 was > 10 µM (inactive) throughout.
